Data published in patent US20110052732A1, “MINERAL ABSORPTION ACCELERATOR AND IRON DEFICIENCY ANEMIA IMPROVER OF FOOD COMPOSITION” (FUJIFILM Corporation, priority 2008, published 2011).

System: SD rats
Assay: Mineral balance test in rats (absorption rate, internal retention rate, serum concentration)
Type: in vivo, rat
Details: oral aqueous solution 2.0 g/day; for Absorption rate of calcium / Absorption rate of iron / Absorption rate of magnesium / Absorption rate of zinc / Internal retention rate of calcium / Internal retention rate of iron / Internal retention rate of magnesium / Internal retention rate of zinc: 14 days, then urine and feces collected for 4 days
From the text: SD rats (males) of 4 weeks of age after birth were preliminarily reared for 1 week and then divided into a control group and 6 sample ingestion groups, each group consisting of 6 animals, at random based on body weight. In the rats of salacinol administration group, 0.1% salacinol aqueous solution was orally administered at a dose of 2.0 g/day per unit weight of rat. In the rats of voglibose administration group, 0.4% voglibose aqueous solution was orally administered at a dose of 2.0 g/day per unit weight of rat. In the rats of acarbose administration group, 0.4% acarbose aqueous solution was orally administered at a dose of 2.0 g/day per unit weight of rat. In the rats of Salacia extract powder administration group, 1% Salacia extract powder aqueous solution was orally administered at a dose of 2.0 g/day per unit weight of rat. In the rats of mulberry extract powder administration group, 1% mulberry extract powder aqueous solution was orally administered at a dose of 2.0 g/day per unit weight of rat. In the rats of Salacia extract powder+green tea extract administration group, 1% Salacia extract powder+1% green tea extract mixed aqueous solution was orally administered at a dose of 2.0 g/day per unit weight of rat. In the rats of control group, water was orally administered at a dose of 2.0 g/day per unit weight of rat. Each rat was reared with a solid feed (CRF-1 mfd. by Oriental Yeast) for 14 days and then transferred into a cage for metabolism analysis, and urine and feces were collected for a period of 4 days to measure concentrations of iron, calcium, magnesium and zinc. Detection of minerals from feces was carried out using inductively coupled plasma emission spectrometry, and those from urine and serum using atomic absorption method. Absorption rate and internal holding rate of each mineral were calculated using the following formulae. Absorbed amount=ingested amount−discharged amount into feces Absorption rate (%)=absorbed amount÷ingested amount×100 Internally retained amount=absorbed amount−discharged amount into urine Internal retention rate (%)=internally retained amount÷ingested amount×100 Results of the absorption rate and internal retention rate of minerals and concentration of mineral in serum by the mineral balance test are respectively shown in Tables 3 to 5.

## O=S(=O)([O-])O[C@@H](CO)[C@H](O)C[S@+]1C[C@@H](O)[C@H](O)[C@H]1CO [Salacinol]
  Absorption rate of calcium: 33.2%
  Absorption rate of iron: 38.5%
  Absorption rate of magnesium: 20.5%
  Absorption rate of zinc: 30.1%
  Internal retention rate of calcium: 32.3%
  Internal retention rate of iron: 34.2%
  Internal retention rate of magnesium: 23.6%
  Internal retention rate of zinc: 19.5%
  Concentration of calcium in serum: 11.8 mg/dL
  Concentration of iron in serum: 298.6 µg/dL
  Concentration of magnesium in serum: 2.06 mg/dL
  Concentration of zinc in serum: 122.7 µg/dL

## C[C@H]1O[C@H](O[C@H]2[C@H](O)[C@@H](O)[C@@H](O[C@H]3[C@H](O)[C@@H](O)C(O)O[C@@H]3CO)O[C@@H]2CO)[C@H](O)[C@@H](O)[C@@H]1N[C@H]1C=C(CO)[C@@H](O)[C@H](O)[C@H]1O (stereo partly drawn) [Acarbose, acarbose]
  Absorption rate of calcium: 32.8%
  Absorption rate of iron: 37.5%
  Absorption rate of magnesium: 20.8%
  Absorption rate of zinc: 29.3%
  Internal retention rate of calcium: 31.5%
  Internal retention rate of iron: 32.8%
  Internal retention rate of magnesium: 23.1%
  Internal retention rate of zinc: 18.4%
  Concentration of calcium in serum: 10.9 mg/dL
  Concentration of iron in serum: 289.3 µg/dL
  Concentration of magnesium in serum: 2.01 mg/dL
  Concentration of zinc in serum: 121.3 µg/dL

## OCC(CO)N[C@H]1C[C@](O)(CO)[C@@H](O)[C@H](O)[C@H]1O [Voglibose, voglibose]
  Absorption rate of calcium: 32.5%
  Absorption rate of iron: 37.8%
  Absorption rate of magnesium: 21.2%
  Absorption rate of zinc: 29.8%
  Internal retention rate of calcium: 32.1%
  Internal retention rate of iron: 33.9%
  Internal retention rate of magnesium: 24.0%
  Internal retention rate of zinc: 18.6%
  Concentration of calcium in serum: 10.9 mg/dL
  Concentration of iron in serum: 292.5 µg/dL
  Concentration of magnesium in serum: 2.04 mg/dL
  Concentration of zinc in serum: 120.2 µg/dL
